Results published in PubChem BioAssay (NCI).
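A five-concentration, 48-hour dose response in 96-well plates underlies each endpoint, interpolated linearly between surrounding concentrations. GI50 marks 50% less growth. At the TGI there is no net growth.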

How the values were obtained:
Test in all cases: inhibition of tumour cell growth, NCI panel, 48 h
[1] = test system: U251 CNS
[2] = test system: 786-0 renal
[3] = test system: SK-MEL-2 melanoma
[4] = test system: SF-268 CNS
[5] = test system: UACC-62 melanoma
[6] = test system: HCT-15 colon
[7] = test system: OVCAR-5 ovarian
[8] = test system: M14 melanoma
[9] = test system: OVCAR-8 ovarian
[10] = test system: A498 renal
[11] = test system: SNB-19 CNS
[12] = test system: NCI-H522 lung
[13] = test system: CAKI-1 renal
[14] = test system: COLO 205 colon
[15] = test system: NCI/ADR-RES ovarian
[16] = test system: SNB-75 CNS
[17] = test system: UO-31 renal
[18] = test system: OVCAR-4 ovarian
[19] = test system: SK-MEL-5 melanoma
[20] = test system: IGROV1 ovarian
[21] = test system: TK-10 renal
[22] = test system: MCF7 breast
[23] = test system: EKVX NSCLC
[24] = test system: MDA-MB-231 breast
[25] = test system: HCC-2998 colon
[26] = test system: LOX IMVI melanoma
[27] = test system: HL-60(TB) leukemia
[28] = test system: NCI-H460 lung
[29] = test system: T-47D breast
[30] = test system: HCT-116 colon
[31] = test system: KM12 colon
[32] = test system: HOP-62 NSCLC
[33] = test system: SK-MEL-28 melanoma
[34] = test system: A549 NSCLC
[35] = test system: HOP-92 NSCLC
[36] = test system: SW-620 colon
[37] = test system: HS 578T breast
[38] = test system: SR leukemia
[39] = test system: RXF 393 renal
[40] = test system: PC-3 prostate
[41] = test system: MOLT-4 leukemia
[42] = test system: MALME-3M melanoma
[43] = test system: SF-295 CNS
[44] = test system: UACC-257 melanoma
[45] = test system: SN12C renal
[46] = test system: RPMI-8226 leukemia
[47] = test system: OVCAR-3 ovarian
[48] = test system: CCRF-CEM leukemia
[49] = test system: MDA-MB-435
[50] = test system: BT-549 breast
[51] = test system: HT29 colon
[52] = test system: SF-539 CNS
[53] = test system: SK-OV-3 ovarian
[54] = test system: NCI-H226 lung
[55] = test system: ACHN renal
[56] = test system: K-562 leukemia
[57] = test system: DU-145 prostate

## CNC(=O)c1cc(-n2ccc3cc(NC(=O)Nc4ccc(N5CCOCC5)c(C(F)(F)F)c4)ccc32)ccn1
[1]
  GI50: 3.23 µM
  TGI: > 33.3 µM
[2]
  GI50: 2.89 µM
  TGI: > 33.3 µM
[3]
  GI50: 11.3 µM
  TGI: > 33.3 µM
[4]
  GI50: 27.2 µM
  TGI: > 33.3 µM
[5]
  GI50: 1.27 µM
  TGI: 14.7 µM
[6]
  GI50: 1.93 µM
  TGI: > 33.3 µM
[7]
  GI50: 14.6 µM
  TGI: > 33.3 µM
[8]
  GI50: 3.11 µM
  TGI: > 33.3 µM
[9]
  GI50: 4.5 µM
  TGI: > 33.3 µM
[10]
  GI50: > 33.3 µM
  TGI: > 33.3 µM
[11]
  GI50: 15 µM
  TGI: > 33.3 µM
[12]
  GI50: 2.9 µM
  TGI: > 33.3 µM
[13]
  GI50: 10 µM
  TGI: > 33.3 µM
[14]
  GI50: 2.09 µM
  TGI: > 33.3 µM
[15]
  GI50: 7.51 µM
  TGI: > 33.3 µM
[16]
  GI50: 6.38 µM
  TGI: > 33.3 µM
[17]
  GI50: 3.55 µM
  TGI: > 33.3 µM
[18]
  GI50: 7.76 µM
  TGI: > 33.3 µM
[19]
  GI50: 1.32 µM
  TGI: 7.58 µM
[20]
  GI50: 3.87 µM
  TGI: > 33.3 µM
[21]
  GI50: 27.6 µM
  TGI: > 33.3 µM
[22]
  GI50: 1.7 µM
  TGI: > 33.3 µM
[23]
  GI50: > 33.3 µM
  TGI: > 33.3 µM
[24]
  GI50: 17.9 µM
  TGI: > 33.3 µM
[25]
  GI50: 11.5 µM
  TGI: > 33.3 µM
[26]
  GI50: 0.251 µM
  TGI: > 33.3 µM
[27]
  GI50: 1.62 µM
  TGI: > 33.3 µM
[28]
  GI50: 4.39 µM
  TGI: > 33.3 µM
[29]
  GI50: 0.907 µM
  TGI: 15.5 µM
[30]
  GI50: 2.09 µM
  TGI: > 33.3 µM
[31]
  GI50: 0.159 µM
  TGI: > 33.3 µM
[32]
  GI50: 1.52 µM
  TGI: 14.6 µM
[33]
  GI50: 11.7 µM
  TGI: > 33.3 µM
[34]
  GI50: 5.15 µM
  TGI: > 33.3 µM
[35]
  GI50: 2.11 µM
  TGI: > 33.3 µM
[36]
  GI50: 8.36 µM
  TGI: > 33.3 µM
[37]
  GI50: 1.85 µM
  TGI: > 33.3 µM
[38]
  GI50: 1.88 µM
  TGI: > 33.3 µM
[39]
  GI50: 0.595 µM
  TGI: 1.62 µM
[40]
  GI50: 1.31 µM
  TGI: > 33.3 µM
[41]
  GI50: 1.93 µM
  TGI: > 33.3 µM
[42]
  GI50: 3.89 µM
  TGI: > 33.3 µM
[43]
  GI50: 0.938 µM
  TGI: 3.24 µM
[44]
  GI50: 8.89 µM
  TGI: > 33.3 µM
[45]
  GI50: 9.21 µM
  TGI: > 33.3 µM
[46]
  GI50: 1.04 µM
  TGI: 3.11 µM
[47]
  GI50: 6.48 µM
  TGI: > 33.3 µM
[48]
  GI50: 1.53 µM
  TGI: > 33.3 µM
[49]
  GI50: 5.73 µM
  TGI: > 33.3 µM
[50]
  GI50: 1.27 µM
  TGI: 8.9 µM
[51]
  GI50: 2.01 µM
  TGI: > 33.3 µM
[52]
  GI50: 1.41 µM
  TGI: > 33.3 µM
[53]
  GI50: 26.7 µM
  TGI: > 33.3 µM
[54]
  GI50: 3.69 µM
  TGI: > 33.3 µM
[55]
  GI50: 5.69 µM
  TGI: > 33.3 µM
[56]
  GI50: 1.24 µM
  TGI: > 33.3 µM
[57]
  GI50: 10.4 µM
  TGI: > 33.3 µM
